Assays:
[1] = test system: RPE-1 cells expressing GFP–Polθ; assay: siRNA screen, cell count; assay type: cell-based, human
From the text: (§1) The Human DDR siRNA library comprising 1,746 single siRNAs representing 582 human genes (3 siRNAs per gene) was obtained from ThermoFisher Scientific (A30089). For controls, siRNAs targeting GL2, kinesin family member 11 (KIF11) and GM130 were used to assess transfection efficacy and induced cell toxicity. FANCD2 siRNA ([…]dT, defined as FANCD2-ctrl in Supplementary Table 1) was used as a positive control inhibiting Polθ foci formation. RPE-1 cells expressing GFP–Polθ (250 cells per well in 384-well plates) were grown overnight. siRNAs were incubated 15 min with 0.05 μl Interferin reagent (Polyplus transfection) and Opti-MEM (ThermoFisher Scientific) prior to being transferred into each 384-well plate wells, to obtain a 10 nM final concentration. Cells were irradiated 72 h after transfection, at a dose of 5 Gy (226 s) with the CIXD irradiator (RadeXp platform, Institut Curie) and incubated at 37 °C, 5% CO2 for 2 h. […] Polθ was then identified as organelles in the nuclei area and quantified by the average intensity of pixels within the defined organelles region. […] Corrected values were normalized as follows: sample median and median absolute deviation (MAD) were calculated from the Interferin-treated population of each internal plate data points (named as Ref pop) and used to compute robust Z-scores[59] […]

[2] = test system: Polθ foci formation in RPE-1 cells expressing GFP–Polθ; assay: siRNA screen for ionizing radiation-induced Polθ foci formation; assay type: cell-based, human; settings: 10 nM siRNA, 72 h, then 5 Gy, 2 h; cells with at least 5 Polθ foci; median RZ score of the three siRNAs, three replicate experiments
From the text: as §1

GGAGAUUGAUGGUCUACUATdT (GGAGAUUGAUGGUCUACUATT; chemistry not given here) [fancd2-ctrl]
Toxicity threshold [1]: Toxic
Robust z score_corrected_Cells multi-foci_MultiFoci (%) [2]: -7.14

Source: publication PMC10499603, “Polθ is phosphorylated by PLK1 to repair double-strand breaks in mitosis” (Nature, 2023)
